{"source": "patent US20030100508A1", "about": "“Carbohydrate epitope mimic compounds and uses thereof” (priority 1999, published 2003)", "key": {"[1]": {"assay": "L2 glycolipid binding to immobilized CD4 peptide", "details": "L2 glycolipid 3 μg/ml, detected with L2-412", "description": "The ability of isolated L2/HNK-1 glycolipid to bind to immobilized CD-4 peptide was tested. CD-4 peptide was immobilized in water at different concentrations and dried onto microtiter plates overnight. The microtiter plates were blocked with 1% BSA in PBS, incubated with 3 ug/ml L2 glycolipid for 1.5 hours at room temperature, and washed with PBS. Bound L2 glycolipid was detected with L2-412 antibody followed by HRP-linked secondary antibody.\nIt was determined whether L2 glycolipid could bind substrate coated CD-4 peptide. CD4 peptide was coated onto microtiter plates by coating with serial dilutions of CD4 peptide (1 mg/ml 1:1 in EtOH) and allowed to dry overnight. The wells were incubated with L2-glycolipid (3 μg/ml) for 1 hour at RT, L2-412 antibody (1: 1000) then added and further incubated for 3 hours at RT. Goat anti-rat antibody was then added, incubated 2 hours at RT and detected by HRP-linked secondary antibody.\nThe CD-4 peptide was conjugated to Ovalbumin (by similar methods as for BSA conjugation described in Materials and Methods) to generate CD4-OV, and binding experiments were performed to assess binding of conjugated peptide to laminin and L2 glycolipid. In particular, it was necessary to confirm that CD4 peptide and laminin compete directly in binding to L2/HNK-1 glycolipids. […]"}, "[2]": {"target": "T1, laminin (Mus musculus, UniProt P19137)", "T1 construct": "purchased Gibco/BRL", "assay": "Competition of L2 glycolipid binding to immobilized laminin by CD4 peptide", "details": "L2 glycolipids 3 μg/ml, varying CD-4 peptide", "description": "The CD-4 peptide was conjugated to Ovalbumin (by similar methods as for BSA conjugation described in Materials and Methods) to generate CD4-OV, and binding experiments were performed to assess binding of conjugated peptide to laminin and L2 glycolipid. In particular, it was necessary to confirm that CD4 peptide and laminin compete directly in binding to L2/HNK-1 glycolipids. In this set of experiments, microtiter plates were coated with serial dilutions of either CD4-OV or laminin (each 10 μg/ml 1:1 in EtOH, allowed to dry overnight). The coated plates were then incubated in the following combinations: (a) CD4-OV coated plates with L2 glycolipid (3 μg/ml, 1 hr, RT); (b) laminin coated plates with L2 glycolipid (3 μg/ml. 1 hr, RT); and (c) laminin coated plates with CD-4-OV (1 μg/ml) and L2 glycolipids (3 μg/ml) for 1 hr at RT. Similar to the previous set of experiments L2-412 antibody was added (1:1000, 3 hr, RT), followed by HRP-conjugated-goat anti-rat antibody (2 hrs, RT) and detection by HRP-linked secondary antibody. The results (not shown) confirmed that CD4 peptide and laminin compete directly in binding to L2/HNK-1 glycolipids.\nTo further assess whether the CD-4 peptide could inhibit L2 glycolipid binding to laminin, a fixed amount of L2 glycolipid was incubated with immobilized laminin, in the presence of varying concentrations of CD-4 peptide. […]"}}, "data": [{"sequence": "RASSSKSWITFDLKNKEVSVK [CD4 peptide]", "values": [{"measurement": "L2 glycolipid binding to immobilized CD4 peptide (words)", "setting": "[1]", "value": "binds to CD4 peptide in a concentration-dependent manner"}, {"measurement": "L2 glycolipid binding to immobilized CD4 peptide (words)", "setting": "[1]; listed as CD-4 peptide", "value": "binds L2 glycolipid in a concentration dependent manner"}, {"measurement": "competition of L2 glycolipid binding to immobilized laminin", "setting": "[2]", "value": "competes with L2 glycolipid binding to immobilized laminin in a concentration-dependent manner"}]}]}
